In patent US7074806B2, “Glucocorticoid mimetics, methods of making them, pharmaceutical compositions, and uses thereof” (Boehringer Ingelheim Pharmaceuticals, Inc., priority 2002, dated 2006):

biological target: T1, human glucocorticoid receptor (GR) complex (Homo sapiens, UniProt P04150); assay: Glucocorticoid Receptor Competitive Binding Assay (fluorescence polarization); conditions: competition with TAMRA-labeled dexamethasone for binding to GR; result in words only
T1 construct: made in house; host or cells: insect expression system (baculovirus lysate)
T1 sequence (P04150 1-777): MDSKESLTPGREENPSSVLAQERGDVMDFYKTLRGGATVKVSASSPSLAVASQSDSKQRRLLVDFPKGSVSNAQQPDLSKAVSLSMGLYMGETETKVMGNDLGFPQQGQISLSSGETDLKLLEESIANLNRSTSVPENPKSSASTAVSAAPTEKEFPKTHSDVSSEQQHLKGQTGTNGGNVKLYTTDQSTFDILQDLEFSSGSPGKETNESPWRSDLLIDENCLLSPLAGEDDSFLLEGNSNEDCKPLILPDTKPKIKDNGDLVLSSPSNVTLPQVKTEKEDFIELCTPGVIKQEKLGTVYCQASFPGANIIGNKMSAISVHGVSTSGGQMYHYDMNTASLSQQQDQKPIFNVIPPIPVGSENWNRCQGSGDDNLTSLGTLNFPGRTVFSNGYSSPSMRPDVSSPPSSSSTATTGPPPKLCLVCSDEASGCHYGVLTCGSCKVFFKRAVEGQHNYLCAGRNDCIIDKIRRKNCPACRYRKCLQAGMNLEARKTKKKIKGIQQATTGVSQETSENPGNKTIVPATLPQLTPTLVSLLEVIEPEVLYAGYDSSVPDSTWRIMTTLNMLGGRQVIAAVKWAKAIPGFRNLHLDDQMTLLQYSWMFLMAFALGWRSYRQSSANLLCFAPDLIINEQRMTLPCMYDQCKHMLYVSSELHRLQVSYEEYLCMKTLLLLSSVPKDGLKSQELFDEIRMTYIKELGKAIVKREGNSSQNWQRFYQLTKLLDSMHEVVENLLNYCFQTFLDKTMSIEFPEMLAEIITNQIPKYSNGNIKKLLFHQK
Experimental: Compounds of the invention were evaluated for binding to the steroid receptor by a fluorescence polarization competitive binding assay. Detailed descriptions for preparation of recombinant glucocorticoid receptor (GR) complex used in the assay is described in Goldrick et al., U.S. provisional application No. 60/291,877, filed May 18, 2001 (corresponding to Goldrick et al., U.S. nonprovisional application No. 10/151,133, filed May 20, 2002, both incorporated herein by reference in their entirety. Preparation of the tetramethyl rhodamine (TAMRA)-labeled dexamethasone probe was accomplished using a standard literature procedure (M. Pons et al., J. Steroid Biochem., 1985, 22, pp. 267–273).
A. Glucocorticoid Receptor Competitive Binding Assay
Step 1. Characterization of the Fluorescent Probe
The wavelengths for maximum excitation and emission of the fluorescent probe should first be measured. An example of such a probe is rhodamine (TAMRA)-labeled dexamethasone.
The affinity of the probe for the steroid receptor was then determined in a titration experiment. The fluorescence polarization value of the probe in assay buffer was measured on an SLM-8100 fluorometer using the excitation and emission maximum values described above. Aliquots of expression vector lysate were added and fluorescence polarization was measured after each addition until no further change in polarization value was observed. Non-linear least squares regression analysis was used to calculate the dissociation constant of the probe from the polarization values obtained for lysate binding to the probe.
Step 2. Screening for Inhibitors of Probe Binding
This assay uses fluorescence polarization (FP) to quantitate the ability of test compounds to compete with tetramethyl rhodamine (TAMRA)-labeled dexamethasone for binding to a human glucocorticoid receptor (GR) complex prepared from an insect expression system. The assay buffer was: 10 mM TES, 50 mM KCl, 20 mM Na2MoO4.2H2O, 1.5 mM EDTA, 0.04% w/v CHAPS, 10% v/v glycerol, 1 mM dithiothreitol, pH 7.4. Test compounds were dissolved to 1 mM in neat DMSO and then further diluted to 10×assay concentration in assay buffer supplemented with 10% v/v DMSO. Test compounds were serially diluted at 10×assay concentrations in 10% DMSO-containing buffer in 96-well polypropylene plates. Binding reaction mixtures were prepared in 96-well black Dynex microtiter plates by sequential addition of the following assay components to each well: […] of 10×test compound solution, 85 μL of GR-containing baculovirus lysate diluted 1:170 in assay buffer, and 50 μL of 15 nM TAMRA-labeled dexamethasone. Positive controls were reaction mixtures containing no test compound; negative controls (blanks) were reaction mixtures containing 0.7 μM to 2 μM dexamethasone. The binding reactions were incubated for 1 hour at room temperature and then read for fluorescence polarization in the LJL Analyst set to 550 nm excitation and 580 nm emission, with the Rhodamine 561 dichroic mirror installed. IC50 values were determined by iterative non-linear curve fitting of the FP signal data to a 4-parameter logistic equation.

Activity in the GR binding assay, demonstrated activity:
COc1ccc(F)cc1C(C)(C)CC(N)(Cc1ccnc2ccccc12)C(F)(F)F (stereo not drawn) [Compound 12, 3-(5-Fluoro-2-methoxy-phenyl)-3-methyl-1-quinolin-4-ylmethyl-1-trifluoromethyl-butylamine]
COc1ccc(F)cc1C(C)(C)CC(N)(Cc1cc2ccccc2[nH]1)C(F)(F)F (stereo not drawn) [Compound 2, 3-(5-Fluoro-2-methoxy-phenyl)-1-(1H-indol-2-ylmethyl)-3-methyl-1-trifluoromethyl-butylamine]
CNC(Cc1ccnc2ccccc12)(CC(C)(C)c1cc(F)ccc1OC)C(F)(F)F (stereo not drawn) [Compound 24, [3-(5-Fluoro-2-methoxy-phenyl)-3-methyl-1-quinolin-4-ylmethyl-1-trifluoromethyl-butyl]-methyl-amine]
CCCNC(Cc1ccnc2ccccc12)(CC(C)(C)c1cc(F)ccc1OC)C(F)(F)F (stereo not drawn) [Compound 26, [3-(5-Fluoro-2-methoxy-phenyl)-3-methyl-1-quinolin-4-ylmethyl-1-trifluoromethyl-butyl]-propyl-amine]
COc1ccc(F)cc1C(C)(C)CC(Cc1ccnc2ccccc12)(NCC(C)C)C(F)(F)F (stereo not drawn) [Compound 27, [3-(5-Fluoro-2-methoxy-phenyl)-3-methyl-1-quinolin-4-ylmethyl-1-trifluoromethyl-butyl]-isobutyl-amine]
CCCCNC(Cc1ccnc2ccccc12)(CC(C)(C)c1cc(F)ccc1OC)C(F)(F)F (stereo not drawn) [Compound 28, Butyl-[3-(5-fluoro-2-methoxy-phenyl)-3-methyl-1-quinolin-4-ylmethyl-1-trifluoromethyl-butyl]-amine]
